The results in this text go back to patent US9302988B2, “Fluoromethyl-substituted pyrrole carboxamides” (GRÜNENTHAL GMBH, priority 2012, dated 2016).

The target of this assay is T1, Human CaV2.2 channels (Homo sapiens, UniProt Q00975).
T1 construct: expressed in transfected cells
T1 sequence (Q00975 whole entry): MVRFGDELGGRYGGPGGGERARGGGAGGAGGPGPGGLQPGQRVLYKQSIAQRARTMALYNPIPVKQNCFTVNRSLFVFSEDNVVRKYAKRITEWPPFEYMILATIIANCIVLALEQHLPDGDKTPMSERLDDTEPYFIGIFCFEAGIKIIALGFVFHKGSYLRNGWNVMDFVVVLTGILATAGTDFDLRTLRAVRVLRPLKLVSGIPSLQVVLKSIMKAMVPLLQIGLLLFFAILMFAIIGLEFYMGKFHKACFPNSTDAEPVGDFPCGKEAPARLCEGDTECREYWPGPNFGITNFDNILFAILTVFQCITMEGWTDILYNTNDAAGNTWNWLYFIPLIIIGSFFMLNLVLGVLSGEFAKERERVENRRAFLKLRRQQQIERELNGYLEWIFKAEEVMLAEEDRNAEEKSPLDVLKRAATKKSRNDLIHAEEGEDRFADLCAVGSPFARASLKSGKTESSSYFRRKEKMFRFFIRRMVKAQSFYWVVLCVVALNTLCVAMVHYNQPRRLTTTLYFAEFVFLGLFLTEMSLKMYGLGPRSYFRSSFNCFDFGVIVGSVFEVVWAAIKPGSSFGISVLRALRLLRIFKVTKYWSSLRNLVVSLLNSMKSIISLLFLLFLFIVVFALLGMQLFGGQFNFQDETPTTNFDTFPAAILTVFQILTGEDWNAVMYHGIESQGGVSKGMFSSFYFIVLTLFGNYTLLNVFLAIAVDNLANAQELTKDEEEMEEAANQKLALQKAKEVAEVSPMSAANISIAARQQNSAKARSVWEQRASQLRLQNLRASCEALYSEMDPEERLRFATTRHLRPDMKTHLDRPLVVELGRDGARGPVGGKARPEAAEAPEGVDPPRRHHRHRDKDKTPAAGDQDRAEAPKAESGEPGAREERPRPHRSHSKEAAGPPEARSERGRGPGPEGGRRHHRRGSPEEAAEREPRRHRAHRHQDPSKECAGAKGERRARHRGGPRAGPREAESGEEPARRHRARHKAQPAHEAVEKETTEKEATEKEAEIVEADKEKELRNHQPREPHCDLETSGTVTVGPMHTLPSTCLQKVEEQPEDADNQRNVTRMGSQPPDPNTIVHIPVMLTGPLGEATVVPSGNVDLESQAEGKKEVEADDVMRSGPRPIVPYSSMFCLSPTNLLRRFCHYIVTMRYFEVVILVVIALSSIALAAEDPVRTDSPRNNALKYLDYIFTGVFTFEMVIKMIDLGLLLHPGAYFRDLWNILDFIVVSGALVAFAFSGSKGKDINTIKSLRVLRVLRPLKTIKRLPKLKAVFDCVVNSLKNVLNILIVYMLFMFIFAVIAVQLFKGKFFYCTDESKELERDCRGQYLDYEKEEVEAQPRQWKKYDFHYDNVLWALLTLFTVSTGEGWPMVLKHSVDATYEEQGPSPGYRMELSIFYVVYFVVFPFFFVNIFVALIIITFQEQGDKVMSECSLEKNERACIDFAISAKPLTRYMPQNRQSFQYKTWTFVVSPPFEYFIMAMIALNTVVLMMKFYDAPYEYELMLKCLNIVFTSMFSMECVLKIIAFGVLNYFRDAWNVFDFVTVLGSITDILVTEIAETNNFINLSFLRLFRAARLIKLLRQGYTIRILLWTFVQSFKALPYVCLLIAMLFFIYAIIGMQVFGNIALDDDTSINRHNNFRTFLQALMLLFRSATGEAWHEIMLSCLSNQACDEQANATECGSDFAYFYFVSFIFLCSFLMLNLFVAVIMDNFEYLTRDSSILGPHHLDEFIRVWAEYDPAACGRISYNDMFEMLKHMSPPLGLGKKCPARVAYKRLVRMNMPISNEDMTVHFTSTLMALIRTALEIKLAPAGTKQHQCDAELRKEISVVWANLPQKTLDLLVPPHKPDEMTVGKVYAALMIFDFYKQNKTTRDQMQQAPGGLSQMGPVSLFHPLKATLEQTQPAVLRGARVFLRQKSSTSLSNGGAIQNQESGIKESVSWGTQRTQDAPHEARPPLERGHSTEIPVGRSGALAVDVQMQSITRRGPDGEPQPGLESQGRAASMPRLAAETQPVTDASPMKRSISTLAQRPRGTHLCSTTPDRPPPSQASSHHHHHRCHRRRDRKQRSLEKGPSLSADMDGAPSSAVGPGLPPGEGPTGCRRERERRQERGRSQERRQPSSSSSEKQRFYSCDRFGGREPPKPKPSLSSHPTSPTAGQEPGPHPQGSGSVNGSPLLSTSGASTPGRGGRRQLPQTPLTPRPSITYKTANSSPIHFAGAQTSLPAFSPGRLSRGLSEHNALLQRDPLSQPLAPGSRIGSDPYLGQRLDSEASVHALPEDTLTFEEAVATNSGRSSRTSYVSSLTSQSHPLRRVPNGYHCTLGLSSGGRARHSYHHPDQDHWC
T1 sequence (P54289 25-1103, further chain): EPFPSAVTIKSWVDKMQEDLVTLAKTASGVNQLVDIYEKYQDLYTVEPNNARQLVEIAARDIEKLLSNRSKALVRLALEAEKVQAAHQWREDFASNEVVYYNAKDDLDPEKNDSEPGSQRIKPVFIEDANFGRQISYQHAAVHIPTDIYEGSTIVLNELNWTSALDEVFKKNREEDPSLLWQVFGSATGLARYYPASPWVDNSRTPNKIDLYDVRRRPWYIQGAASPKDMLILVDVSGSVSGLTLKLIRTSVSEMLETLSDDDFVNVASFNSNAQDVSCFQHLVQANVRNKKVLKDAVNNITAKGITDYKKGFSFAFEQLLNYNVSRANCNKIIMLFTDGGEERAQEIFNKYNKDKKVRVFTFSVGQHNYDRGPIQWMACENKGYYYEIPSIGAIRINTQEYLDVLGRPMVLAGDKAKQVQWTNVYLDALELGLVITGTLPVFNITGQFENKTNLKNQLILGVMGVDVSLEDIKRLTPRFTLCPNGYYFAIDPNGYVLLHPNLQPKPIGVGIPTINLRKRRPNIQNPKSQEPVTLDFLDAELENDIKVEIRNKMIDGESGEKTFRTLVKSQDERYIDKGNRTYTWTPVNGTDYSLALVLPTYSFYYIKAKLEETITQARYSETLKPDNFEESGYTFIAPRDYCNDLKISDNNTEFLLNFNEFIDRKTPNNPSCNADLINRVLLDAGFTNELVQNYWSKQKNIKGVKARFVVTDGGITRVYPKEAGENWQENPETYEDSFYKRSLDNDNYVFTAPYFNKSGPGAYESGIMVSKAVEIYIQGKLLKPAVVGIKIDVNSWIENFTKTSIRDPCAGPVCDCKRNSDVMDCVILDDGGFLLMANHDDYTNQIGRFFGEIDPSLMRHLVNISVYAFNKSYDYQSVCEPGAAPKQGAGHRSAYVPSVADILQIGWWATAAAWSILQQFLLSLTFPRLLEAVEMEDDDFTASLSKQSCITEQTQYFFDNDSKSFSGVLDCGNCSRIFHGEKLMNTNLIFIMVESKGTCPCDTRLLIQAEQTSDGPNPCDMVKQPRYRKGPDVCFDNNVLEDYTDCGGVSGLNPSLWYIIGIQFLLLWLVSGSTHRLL
T1 sequence (P54284 whole entry, further chain): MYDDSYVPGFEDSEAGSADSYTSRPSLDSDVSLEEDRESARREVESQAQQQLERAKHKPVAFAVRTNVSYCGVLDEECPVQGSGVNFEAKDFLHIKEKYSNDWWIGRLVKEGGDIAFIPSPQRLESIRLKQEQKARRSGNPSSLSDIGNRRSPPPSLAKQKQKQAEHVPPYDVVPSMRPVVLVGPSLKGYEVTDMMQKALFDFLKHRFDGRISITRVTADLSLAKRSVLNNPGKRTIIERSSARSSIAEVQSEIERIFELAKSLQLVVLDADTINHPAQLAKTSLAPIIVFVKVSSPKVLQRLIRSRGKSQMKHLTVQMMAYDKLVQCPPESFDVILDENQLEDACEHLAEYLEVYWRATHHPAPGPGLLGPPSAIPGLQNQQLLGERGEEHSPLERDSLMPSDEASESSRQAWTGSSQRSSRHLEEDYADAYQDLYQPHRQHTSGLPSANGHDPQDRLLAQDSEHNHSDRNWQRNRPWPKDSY
Briefly: Fluorescent assay for CaV2.2 channels using potassium depolarization to induce channel opening (FLIPR, Fluo-4). Type of assay: cell-based. To be noted: 3 μM test compound, 30 mM KCl, HEK293 cells stably expressing human CaV2.2; read-out: %-Inhib (CaV2.2) @3 μM @30 mM KCl. The text has this:
In the process, the Ca^2+ influx is quantified in the FLIPR assay with the aid of a Ca^2+-sensitive dye (type Fluo-4, Molecular Probes Europe BV, Leiden, the Netherlands) in a fluorescent imaging plate reader (FLIPR 3, Molecular Devices, Sunnyvale, USA), as described hereinafter.
2.1 Fluorescent Assay for CaV2.2 Channels Using Potassium Depolarization to Induce Channel Opening
Human CaV2.2 channels were stably expressed in HEK293 cells together with alpha2-delta and beta subunits of voltage gated calcium channels. In addition, an inwardly rectifying potassium channel (Kir2.3) was stably expressed in these cells to augment control of the cell membrane potential by the concentration of extracellular potassium ions. Raise of the extracellular potassium concentration leads to depolarization of the membrane potential and thus regulates the voltage dependent state of CaV2.2 channels. For preparation, cells were seeded in black poly-D-lysine coated 96-well plates (Becton Dickinson, Biocoat 4640) in 100 μl medium [500 ml DMEM/F-12 plus Glutamax (Invitrogen 31331-093) plus 5.5 ml MEM NEAA 100× (Invitrogen 11140-035) plus 50 ml FBS decomplemented (Invitrogen 10270-106) plus 4.4 ml Geneticin (Invitrogen 10131-027) plus 1.1 ml Hygromycin B (Invitrogen 10687-010) plus 68.75 μl Puromycin (Clontech, 631306)] at a cell density of 45.000 cells per well.
Plates were incubated at 37° C. (5% CO2) for 20 to 23 hours. On the day of experiment medium was discarded and cells were loaded with Fluo 4 by addition of 100 μl of basic assay buffer (10 mM HEPES, 30 mM KCl, 120 mM NaCl, 0.8 mM CaCl2, 1.7 mM MgCl2, 10 mM Glucose, 0.1% BSA. pH 7.4) containing 2 μM Fluo 4 (Molecular Probes; F-14201), 0.01% pluronic acid (Molecular Probes; P-6866) and 2.5 mM probenecid (Molecular Probes; P36400). Cells were incubated in the dark at 25° C. for 60 min. Then the dye containing buffer was discarded and 100 μl basic assay buffer was added. Subsequently cells were incubated in the dark at 25° C. for 15 min. 25 μl of basic assay buffer with or without test compound were added and cells were incubated again in the dark at 25° C. for 15 min. Fluorescence intensity was measured on a FLIPR 3 instrument (Molecular Devices Corp., Sunnyvale, Calif.) with excitation at 480 nm and emission at 535 nm. After continuously reading fluorescence for 30 sec, 50 μl of basic assay buffer containing 210 mM KCl (NaCl omitted) were added for depolarization. Peak fluorescent signal intensity was determined and the amplitude of the peak signal, normalized to base line, was used to measure channel inhibition by test compounds.
As for `Cc1c(-c2ccc(Cl)cc2F)c(C(=O)N(C)CCS(C)(=O)=O)n(Cc2ccccc2)c1C(F)(F)F` [SC-64, 1-Benzyl-3-(4-chloro-2-fluoro-phenyl)-N,4-dimethyl-N-(2-methylsulfonyl-ethyl)-5-(trifluoromethyl)-1H-pyrrole-2-carboxylic acid amide], the inhibition at 3 µM was greater than 95%.

Take `Cc1c(-c2ccc(Cl)cc2)c(C(=O)N(C)CC2(O)CC2)n(Cc2ccccc2)c1C(F)(F)F` [SC-65, 1-Benzyl-3-(4-chlorophenyl)-N-[(1-hydroxy-cyclopropyl)-methyl]-N,4-dimethyl-5-(trifluoromethyl)-1H-pyrrole-2-carboxylic acid amide]: the inhibition at 3 µM is greater than 95%.

In the case of `O=C1CN(C(=O)c2c(-c3ccc(Cl)cc3)cc(C(F)(F)F)n2Cc2ccccc2)CCN1` [SC-66, 4-[1-Benzyl-3-(4-chlorophenyl)-5-(trifluoromethyl)-1H-pyrrole-2-carbonyl]-piperazin-2-one], the inhibition at 3 µM lay within 75 to 95%.

With `CN(CCS(C)(=O)=O)C(=O)c1c(-c2ccc(Cl)cc2)cc(C(F)(F)F)n1Cc1ccccc1` [SC-67, 1-Benzyl-3-(4-chlorophenyl)-N-methyl-N-(2-methylsulfonyl-ethyl)-5-(trifluoromethyl)-1H-pyrrole-2-carboxylic acid amide], the inhibition at 3 µM is greater than 95%.

Turning to `CN(CC(C)(C)O)C(=O)c1c(-c2ccc(Cl)cc2)cc(C(F)(F)F)n1Cc1ccccc1` [SC-68, 1-Benzyl-3-(4-chlorophenyl)-N-(2-hydroxy-2-methyl-propyl)-N-methyl-5-(trifluoromethyl)-1H-pyrrole-2-carboxylic acid amide], the inhibition at 3 µM was greater than 95%.

With `CN(CCS(C)(=O)=O)C(=O)c1c(-c2ccc(Cl)cc2)cc(C(F)(F)F)n1Cc1cccc(Cl)c1` [SC-69, 3-(4-Chlorophenyl)-1-[(3-chlorophenyl)-methyl]-N-methyl-N-(2-methylsulfonyl-ethyl)-5-(trifluoromethyl)-1H-pyrrole-2-carboxylic acid amide], the inhibition at 3 µM was 75 to 95%.

Turning to `CN(CC(C)(C)O)C(=O)c1c(-c2ccc(Cl)cc2)cc(C(F)(F)F)n1Cc1cccc(Cl)c1` [SC-70, 3-(4-Chlorophenyl)-1-[(3-chlorophenyl)-methyl]-N-(2-hydroxy-2-methyl-propyl)-N-methyl-5-(trifluoromethyl)-1H-pyrrole-2-carboxylic acid amide], the inhibition at 3 µM is greater than 95%.

Regarding `CN(CC(C)(C)C)C(=O)c1c(-c2ccc(Cl)cc2)cc(C(F)(F)F)n1Cc1cccc(Cl)c1` [SC-71, 3-(4-Chlorophenyl)-1-[(3-chlorophenyl)-methyl]-N-(2,2-dimethyl-propyl)-N-methyl-5-(trifluoromethyl)-1H-pyrrole-2-carboxylic acid amide], the inhibition at 3 µM lay within 75 to 95%.

On to `O=C(c1c(-c2ccc(Cl)cc2)cc(C(F)(F)F)n1Cc1ccccc1)N1CC(O)C1` [SC-72, [1-Benzyl-3-(4-chlorophenyl)-5-(trifluoromethyl)-1H-pyrrol-2-yl]-(3-hydroxy-azetidin-1-yl)-methanone], for which the inhibition at 3 µM lay in the range of 75 to 95%.

Consider `CN(C(=O)c1c(-c2ccc(Cl)cc2)cc(C(F)(F)F)n1Cc1ccccc1)C1CCOCC1` [SC-73, 1-Benzyl-3-(4-chlorophenyl)-N-methyl-N-tetrahydro-pyran-4-yl-5-(trifluoromethyl)-1H-pyrrole-2-carboxylic acid amide], for which the inhibition at 3 µM was greater than 95%.

As to `O=C(c1c(-c2ccc(Cl)cc2)cc(C(F)(F)F)n1Cc1cccc(Cl)c1)N1CCOCC1` [SC-74, [3-(4-Chlorophenyl)-1-[(3-chlorophenyl)-methyl]-5-(trifluoromethyl)-1H-pyrrol-2-yl]-morpholin-4-yl-methanone], the inhibition at 3 µM was greater than 95%.

On to `CC1(C)CN(C(=O)c2c(-c3ccc(Cl)cc3)cc(C(F)(F)F)n2Cc2ccccc2)CCO1` [SC-75, [1-Benzyl-3-(4-chlorophenyl)-5-(trifluoromethyl)-1H-pyrrol-2-yl]-(2,2-dimethyl-morpholin-4-yl)-methanone], for which the inhibition at 3 µM lay within 75 to 95%.

For the compound `CN(CC1CC1)C(=O)c1c(-c2ccc(Cl)cc2)cc(C(F)(F)F)n1Cc1ccccc1` [SC-76, 1-Benzyl-3-(4-chlorophenyl)-N-(cyclopropyl-methyl)-N-methyl-5-(trifluoromethyl)-1H-pyrrole-2-carboxylic acid amide], the inhibition at 3 µM was in the range of 75 to 95%.

For `CN(C(=O)c1c(-c2ccc(Cl)cc2)cc(C(F)(F)F)n1Cc1ccccc1)C(C)(C)C` [SC-77, 1-Benzyl-N-tert-butyl-3-(4-chlorophenyl)-N-methyl-5-(trifluoromethyl)-1H-pyrrole-2-carboxylic acid amide], the inhibition at 3 µM fell in the range of 75 to 95%.

As to `CN(CC1(C)COC1)C(=O)c1c(-c2ccc(Cl)cc2)cc(C(F)(F)F)n1Cc1ccccc1` [SC-78, 1-Benzyl-3-(4-chlorophenyl)-N-methyl-N-[(3-methyl-oxetan-3-yl)-methyl]-5-(trifluoromethyl)-1H-pyrrole-2-carboxylic acid amide], the inhibition at 3 µM is greater than 95%.

In the case of `CN(CC(C)(C)CO)C(=O)c1c(-c2ccc(Cl)cc2)cc(C(F)(F)F)n1Cc1ccccc1` [SC-79, 1-Benzyl-3-(4-chlorophenyl)-N-(3-hydroxy-2,2-dimethyl-propyl)-N-methyl-5-(trifluoromethyl)-1H-pyrrole-2-carboxylic acid amide], the inhibition at 3 µM was greater than 95%.

With `CN(C)C(=O)c1c(-c2ccc(Cl)cc2)cc(C(F)(F)F)n1Cc1ccccc1` [SC-80, 1-Benzyl-3-(4-chlorophenyl)-N,N-dimethyl-5-(trifluoromethyl)-1H-pyrrole-2-carboxylic acid amide], the inhibition at 3 µM was in the range of 75 to 95%.

Turning to `O=C1CN(C(=O)c2c(-c3ccc(Cl)cc3)cc(C(F)(F)F)n2Cc2cccc(Cl)c2)CCN1` [SC-81, 4-[3-(4-Chlorophenyl)-1-[(3-chlorophenyl)-methyl]-5-(trifluoromethyl)-1H-pyrrole-2-carbonyl]-piperazin-2-one], the inhibition at 3 µM was greater than 95%.

Regarding `CC1(C)CN(C(=O)c2c(-c3ccc(Cl)cc3)cc(C(F)(F)F)n2Cc2ccccc2)CCN1` [SC-82, [1-Benzyl-3-(4-chlorophenyl)-5-(trifluoromethyl)-1H-pyrrol-2-yl]-(3,3-dimethyl-piperazin-1-yl)-methanone], the inhibition at 3 µM lay in the range of 75 to 95%.

On to `CN(C(=O)c1c(-c2ccc(Cl)cc2)cc(C(F)(F)F)n1Cc1ccccc1)C1CCS(=O)(=O)C1` (stereo not shown) [SC-83, 1-Benzyl-3-(4-chlorophenyl)-N-(1,1-dioxo-thiolan-3-yl)-N-methyl-5-(trifluoromethyl)-1H-pyrrole-2-carboxylic acid amide], for which the inhibition at 3 µM was greater than 95%.

Turning to `CN(CCC(C)(C)C)C(=O)c1c(-c2ccc(Cl)cc2)cc(C(F)(F)F)n1Cc1ccccc1` [SC-84, 1-Benzyl-3-(4-chlorophenyl)-N-(3,3-dimethyl-butyl)-N-methyl-5-(trifluoromethyl)-1H-pyrrole-2-carboxylic acid amide], the inhibition at 3 µM is 40 to 75%.

As to `CN(CC(C)(C)N1CCOCC1)C(=O)c1c(-c2ccc(Cl)cc2)cc(C(F)(F)F)n1Cc1ccccc1` [SC-85, 1-Benzyl-3-(4-chlorophenyl)-N-methyl-N-(2-methyl-2-morpholin-4-yl-propyl)-5-(trifluoromethyl)-1H-pyrrole-2-carboxylic acid amide], the inhibition at 3 µM was greater than 95%.

Take `O=C(c1c(-c2ccc(Cl)cc2F)cc(C(F)(F)F)n1Cc1ccccc1)N1CCOCC1` [SC-86, [1-Benzyl-3-(4-chloro-2-fluoro-phenyl)-5-(trifluoromethyl)-1H-pyrrol-2-yl]-morpholin-4-yl-methanone]: the inhibition at 3 µM was greater than 95%.

`CN(CC(C)(C)O)C(=O)c1c(-c2ccc(Cl)cc2F)cc(C(F)(F)F)n1Cc1ccccc1` [SC-87, 1-Benzyl-3-(4-chloro-2-fluoro-phenyl)-N-(2-hydroxy-2-methyl-propyl)-N-methyl-5-(trifluoromethyl)-1H-pyrrole-2-carboxylic acid amide]: the inhibition at 3 µM was greater than 95%.

For the compound `CN(CC(C)(C)C)C(=O)c1c(-c2ccc(Cl)cc2F)cc(C(F)(F)F)n1Cc1ccccc1` [SC-88, 1-Benzyl-3-(4-chloro-2-fluoro-phenyl)-N-(2,2-dimethyl-propyl)-N-methyl-5-(trifluoromethyl)-1H-pyrrole-2-carboxylic acid amide], the inhibition at 3 µM is 75 to 95%.
